From patent publication US10948498B2, “Methods and kits for predicting the risk of having a cardiovascular disease or event” (INOTREM, priority 2013, dated 2021)

Experiments:
infarcted mice = assay: Mouse model of myocardial infarction: plasma sTREM-1 after peptide treatment; type: in vivo; settings: for sTREM-1 levels: daily i.p. injection for 5 days, vs LR12-scrambled (FIG. 4A)
Method: (A) Adult male Balb/c mice (20-23 g) were subjected to myocardial ischemia and were randomly grouped (n=10 per group) to receive repeated LR12 (100 μg in 0.2 mL NaCl 0.9% once a day for 5 days) or scrambled-LR12 (100 μg in 0.2 mL NaCl 0.9% once a day for 5 days), i.p. injections. Blood samples was obtained at 24, 72 and 168 hours after cardiac ischemic event to measure plasma sTREM-1 levels. Physiologic baseline is calculated from dosage in healthy animals. N=10 per group and per timepoint.
(§1) Mice serum levels of sTREM-1 were determined by ELISA (Mouse TREM-1 Quantikine ELISA Kit, RnDsystems) using a detection limit at 31.3 pg/mL.
All procedures were performed on mice male C57BL/C ranging in age from 6-8 weeks. Mice were anesthetized by an intraperitoneal injection of xylazine (60 mg/kg) and fixed in supine position. The trachea was intubated and ventilated (the tidal volume was 200 μl/25 g and the respiratory rate was 120 breaths/min). After a left thoracotomy, the left coronary artery was identified and ligated with an 8-0 prolene surgical suture at 1.0 mm distal from tip of the left auricle. LAD occlusion was confirmed by a change in myocardial color from red to white in the ischemia area (Left ventricle). The chest was closed and the skin was sutured with 6-0 silk. The animals returned to their cage where they are supervised until their complete recovery.
Mice were randomized to receive or not peptides (daily ip injection for 5 days, 5 mg/kg) and were sacrificed after 24 h, 72 h, 168 h (n=6 per group) by anesthesia followed with pentobarbital sodium overdose for blood sampling.
We also show in infarcted mice that sTREM-1 levels were decreased by LR12 treatment 24 and 72 hours after an ischemic event (FIG. 4A).

[1] = test system: Atherosclerotic mice (24 weeks old ApoE−/− mice under fat diet); assay: Atherosclerosis in mouse: plasma sTREM-1 after peptide treatment; type: in vivo
Method: (B) Atherosclerotic mice were randomized to receive LR12 (100 μg in 0.2 mL NaCl 0.9% once a day for 4 weeks) or scrambled-LR12 (100 μg in 0.2 mL NaCl 0.9% once a day for 4 weeks), i.p. injections. Blood samples were obtained at the end of the treatment (4 weeks) to assess sTREM-1 plasma concentrations. Physiologic baseline is calculated from dosage in healthy animals. N=10 per group.
as §1
12 and 24-weeks old male ApoE−/− mice were put on a fat (lipids 15%, cholesterol 1.25%, no cholate) or chow diet and were treated by daily intraperitoneal injection of peptides (100 μg/day). After 4 weeks of treatment, mice were sacrificed for blood sampling.
Our second objective was to assess whether a treatment could impact plasma levels of sTREM-1. Atherosclerotic mice (24 weeks old ApoE−/− mice under fat diet) were treated by LR12 peptide, which targets TREM-1 ligand, or a control peptide LR12-scrambled.

Question: Which results are given for “LR12: 12 amino-acids peptide (LQEEDTGEYGCV, SEQ ID NO: 4) known to specifically target TREM-1 ligand (LR12)”?
Answer: sTREM-1 levels (infarcted mice; 24 hours after ischemic event): decreased; sTREM-1 levels (infarcted mice; 72 hours after ischemic event): decreased; outcome after a cardiac ischemic event (infarcted mice; data not shown): better outcome; sTREM-1 plasma concentration ([1]; 24 weeks old ApoE−/− mice under fat diet, 100 μg/day i.p., after 4 weeks of treatment, ELISA): 189.8 pg/mL; outcome during atherosclerosis ([1]; data not shown): better outcome
